# Reference: US11903397B2, “Hay preservative and methods for preservation of hay” (DANSTAR FERMENT AG, priority 2014, dated 2024)
# Marks after values point to notes of the source that are not given here.
# Legend:
# [1] = system: total bacteria (non-fastidious bacteria growing on nutrient agar); test: Enumeration of total bacteria on hay (Example 1)
# Protocol: (§1) Two trial bales were made to determine time to complete application of the additive on one bale, weight of the bale as well as a more accurate measure of moisture content of the baled material. Bale moisture was determined using a hay probe. […] The application rate of P. anomala was 10^11 CFU in 1 L per ton of hay. The enzyme having a chitinase activity was applied at a rate of 1.5 g (suspended in 1 L of water) per ton of hay, corresponding to about 6 U per ton of hay. […] The negative control was water, and was applied at a rate of 1 L per ton of hay. […] Five replicate bales were made for each treatment. Samples of the P. anomala were taken after each application to verify the viability and numbers of the organism. […]
# (§2) Chemical and microbiological analyses were conducted on hay samples collected from six different sections of the field and on composite core samples obtained from four different locations on each bale on day 1, 90, and 180 of storage. […] Dry matter (DM), organic matter (OM) and crude protein (CP) were determined according to AOAC (1990) procedures, and neutral detergent fibre (NDF), acid detergent fibre (ADF), and acid detergent insoluble nitrogen (ADIN) as described by Van Soest et al., (1991. Methods for dietary fiber, neutral detergent and non-starch polysaccharides in relation to animal nutrition. J. Dairy Sci. 74: 3583-3597.).
# yeasts [2] = test: Microbial counts on alfalfa hay: yeast (Example 2)
# From the text: (§3) The application rate of the combination of P. anomala in combination with the enzyme having a chitinase activity was respectively 10^11 CFU and 1.5 g in 1 L of water per ton of hay. Accordingly, the application rate of the combination of P. pentosaceus in combination with the enzyme having a chitinase activity 10^11 CFU and 1.5 g in 1 L of water per ton of hay. […] The negative control was water, and was applied at a rate of 1 L per ton of hay. Five large round bales of about 800 kg were made in accordance with Example 1 for each treatment on the same day. Core samples from bales across all treatments were collected at day 0, 90 and 180 after baling to analyze their nutritional value, fermentation product and microbial changes.
# (§4) Core samples collected on day 0 and 90, 180 after baling were subjected to microbiological and chemical analysis. Microbiological analysis was conducted to enumerate, isolate and characterize the microorganisms (total bacteria, yeasts and moulds) on appropriate plates through serial dilution.
# [3] = In situ NDF disappearance of hay in the rumen (Example 1); assay type: in vivo, Jersey cows; conditions: fitted equation; day 180 hay
# Protocol: (§5) In situ rate and extent of DM and NDF disappearance of the day 180 hay samples were determined in three cows fitted with ruminal cannulas and fed a standard feedlot backgrounding diet consisting of 50% timothy hay plus 50% barley silage (DM basis). Subsamples of the day 180 core samples obtained from bales treated with the same preservative were composited and ground to pass through a 4 mm screen. Approximately 4 g of each composite sample was weighed into Dacron bags and incubated in triplicate in each cow for 0, 2, 6, 12, 24, 48, 72, 96, and 120 h. Bags were made of monofilament polyester mesh (53 μm pore size, 5 cm×20 cm, Ankom, Fairport, New York). Cows were given two weeks to adapt to their diets before starting incubations. Immediately after incubation, bags were rinsed under cold tap water until all the rumen contents on the outside of the bags had been removed. Bags were washed in a domestic washing machine in cold water for three minutes using the delicate washing cycle without detergent and spin cycle. The washing procedure was repeated once. […] The residues from triplicate bags of the same treatment incubated in the same cow were pooled and ground to pass through a 1 mm screen before being analyzed for NDF as per the method stated above. Percentage disappearance of DM and NDF were calculated from the proportion remaining in the bags after each incubation time. […]
# yeasts [4] = test: Enumeration of yeasts on hay (Example 1)
# Protocol: as §1, §2
# molds = test: Enumeration of molds on hay (Example 1)
# Protocol: as §1, §2
# moulds = test: Microbial counts on alfalfa hay: mold (Example 2)
# From the text: as §3, §4
# [5] = Temperature stability of alfalfa hay bales (Example 2, FIG. 2, FIG. 3)
# From the text: as §3
# Temperature of individual bales was monitored by continuously measuring the interior temperature throughout the storage period with three (3) Dallas Thermochron iButtons (Embedded Data Systems, Lawrenceburg, KY) inserted in the interior of each bale immediately after harvest (illustrated in pictures). The temperature was recorded at 4 hours intervals for 10 weeks.
# [6] = Quality evaluation of hay (color, odor, grade) after 180 days (Example 1); set-up: key to GRADE (overall evaluation by examiner): VP: very poor; P: poor; A: average; G: good; VG: very good
# From the text: All bales were opened on day 180 and their quality assessed based on the Maryland Cooperative Extension Fact Sheet #644.
# Temperature stability of the bales was monitored by continuously measuring the interior temperature of each bale with three Dallas Thermochron iButtons (Embedded Data Systems, Lawrenceburg, KY) that were inserted in the core holes the following morning after baling. The iButtons were configured to record temperatures every hour during the first 60 days of the storage period. […] Bales were opened and visually scored for extent of spoilage and mold at the end of the storage period (180 d) based on the Maryland Cooperative Extension Fact Sheet #644 ‘Evaluating Hay Quality’ (http://www.extension.umd.edu/publications/pdfs/fs644. pdf).
# [7] = system: lactic acid producing bacteria (LAB); test: Enumeration of lactic acid producing bacteria on hay (Example 1)
# Protocol: as §1, §2
# [8] = In situ DM disappearance of hay in the rumen (Example 1); assay type: in vivo, Jersey cows; conditions: fitted equation, day 180 hay
# Protocol: as §5
# [9] = In situ ruminal digestion parameters of alfalfa hay (Example 2); assay type: in vivo, cows; conditions: hay 180 days after baling
# Protocol: Core samples were collected on day 180 and evaluated for nutritional quality using in situ and in vitro methods.
# In situ experiments were conducted to assess the effect of hay preservatives on the rate and extent of digestion of hay samples collected 180 days after baling. Three cows fitted with ruminal cannulas and fed a standard feedlot backgrounding diet were used. Approximately 4 g of each composite sample from each bale (replicate) per treatment was weighed into Dacron bags and incubated in triplicate in each cow for 0, 2, 6, 12, 24, 48, 72, 96, and 120 h. Bags were retrieved after incubation and processed according to LRC SOP to determine in situ ruminal DM and NDF disappearance.
# total bacteria = test: Microbial counts on alfalfa hay: total bacteria (Example 2)
# From the text: as §3, §4
# [10] = In vitro digestibility and gas production of alfalfa hay in mixed rumen fluid (Example 2); set-up: species or system cows; conditions: 180 day hay
# Protocol: In vitro experiment was also conducted to assess the effect of microbial inoculants on gas production and kinetics from 180 day hay samples. Two runs by mixed rumen fluid from three cows fitted with ruminal cannulas and fed a standard feedlot backgrounding diet were conducted. Approximately 0.5 g of each composite sample of 180d hay per treatment was weighed into vial and incubated in triplicate in each run and gas were measured for 3, 6, 9, 12, 24 and 48 h. Vials were retrieved after incubation and processed according to LRC SOP to determine in vitro ruminal DM disappearance, gas production, ammonia and VFA.
# [11] = hay 90 days after treatment at baling
# [12] = hay 180 day post treatment at baling
# [13] = day 0, unit printed only at total bacteria (log cfu/g DM)
# [14] = mean of bales, stored for 180 days
compound,measurement,setting,value
"CCC(=O)O [BPA, Propionic Acid]",TB (non-fastidious bacteria growing on nutrient agar),[1]; [11],6.10 cfu log10
same,NA,[1]; [12],7.23 cfu log10
same,YEAST count,yeasts [2]; [13],5.49
same,YEAST count,yeasts [2]; day 90,6.22
same,YEAST count,yeasts [2]; day 180,4.89
same,NDF disappearance kinetics: Lag,[3],2.87^ab h
same,NDF disappearance kinetics: c (fractional rate of disappearance of fraction b),[3],0.069 h⁻¹
same,YEAST,yeasts [4]; [11],5.38 cfu log10
same,YEAST,yeasts [4]; [12],4.67^b cfu log10
same,MOLD,molds; [11],4.77 cfu log10
same,MOLD,molds; [12],6.24 cfu log10
same,MOLD count,moulds; [13],4.66
same,MOLD count,moulds; day 90,5.91
same,average interior bale temperature (in words),"[5]; 60 day period post baling, FIG. 2",highest mean temperature over time
same,time spent above 40° C. (in words),"[5]; storage 2012, FIG. 3",longest time above 40 °C
same,hay quality by visual and sensory assessment (in words),[6]; bales opened on day 180,poorest quality
same,"COLOR score, Mean",[6]; [14],8.8 points
same,"ODOR score, Mean",[6]; [14],6.8 points
same,"OVERALL score, Mean",[6]; [14],15.6
same,GRADE (overall evaluation by examiner),"[6]; single bales (Bale # 1-5), stored for 180 days",P and VP
same,LAB (bacteria growing on MRS presumed to be Lactobacilli),[7]; [11],4.88^c cfu log10
same,MRS,[7]; [12],6.28 cfu log10
same,DM disappearance kinetics: c (fractional rate of disappearance of fraction b),[8],0.083^c h^−1
same,DM disappearance kinetics: c (fractional rate of disappearance of fraction b),[8]; listed as propionic acid,0.083 h⁻¹
same,a = the rapidly degradable fraction,[9],23.64^c
same,b = the slowly degradable fraction,[9],51.69^a
same,c = the rate at which b is degraded,[9],0.04^c /h
same,lag = lag time,[9],1.70^c h
same,Total bacteria,total bacteria; day 0,6.34 log cfu/g DM
same,Total bacteria,total bacteria; day 90,8.49^a log cfu/g DM
same,Total bacteria,total bacteria; day 180,8.25^a log cfu/g DM
same,c = Fractional gas production rate fermentation rate,[10],6.6^c mL h^−1
same,lag = lag time,[10],0.48^a h
